Measurements published in patent publication US4351954A (priority 1979, dated 1982).

Assays:
[1] = system: diamondback moths (Plutella maculipennis Curtis); assay: Insecticidal activity, treated cabbage leaves fed to moths; assay type: in vivo; conditions: 240 h, cabbage leaves immersed in 500-ppm aqueous solution, after 10 days, read-out: insects dead
Text: Cabbage leaves were immersed in a 500-ppm aqueous CF2 BrCF2 CH2 CH(NH2)CO2 H solution, removed from the solution and dried. They were placed in a Petri dish, in which a group of diamondback moths (Plutella maculipennis Curtis) were fed on the cabbage leaves. After 10 days, 70% of the insects were dead. When the same number of diamondback moths were fed on cabbage leaves which had not been given the treatment, only 10% of the insects were dead after 10 days.

[2] = system: blast (Pyricularia oryzae Cavara); assay type: cell-based; conditions: paper discs immersed in 500-ppm aqueous solution; after two days; qualitative
[3] = system: bacterial leaf blight (Xanthomonas oryzae Dowson); assay type: cell-based; conditions: paper discs immersed in 500-ppm aqueous solution; after two days; qualitative
[4] = system: pickerelweed (Monochloria vaginalis var. plantaginea); assay: Herbicidal activity, miniature paddy field; assay type: in vivo; conditions: 1% aqueous solution, after 15 days
Text: (§1) Paddy-field soil kneaded in a concrete mixer was placed in 500-ml plastic beakers. Seeds of barnyardgrass (Echinochloa crusgalli Beauv.) were scattered on the soil and incorporated in the soil to a depth of about 2 cm from the surface. Afterward, the seeds of pickerelweed (Monochloria vaginalis var. plantaginea) and purple loosestrife (Lythrum anceps) were scattered on the surface of soil. Then, slender spikerush (Eleocharis acicularis) and rice were transplanted to the soil. The soil in the beakers was inundated to a depth of about 3 cm. After two days, 1% aqueous solution of CF2 ClCFClCH2 CH(NH2)CO2 H and CF2 BrCF2 CH2 CH(NH2)CO2 H were applied to the soil in the beakers at dosage rates of 1000 g, 500 g, and 250 g per 10 acres with the aid of a pipet. After 15 days, the miniature paddy fields were examined.

[5] = system: purple loosestrife (Lythrum anceps); assay: Herbicidal activity, miniature paddy field; assay type: in vivo; conditions: 1% aqueous solution, after 15 days
Text: as §1

[6] = system: black spot (Alternaria kikuchiana Tanka); assay type: cell-based
[7] = system: melanose (Diaporthe citri Wolf); assay type: cell-based
[8] = system: acid phosphatase; assay: Enzyme inhibiting activity; assay type: biochemical; conditions: pH 5, 37° C. for 20 minutes
Method: A 2×10^-4 M aqueous solution of fluorine-containing amino acid was prepared by adding a fluorine-containing amino acid, viz. CF2 ClCHFCH2 CH(NH2)CO2 H, dissolved in a small amount of methanol to a mixture consisting of 0.1 cc of a 0.025% aqueous solution of acid phosphatase, 0.1 mol of a substrate, 0.05 cc of DPNP, 0.25 cc of water and a 0.1 N sodium acetate (pH 5) as a buffer. The resultant mixture was incubated at 37° C. for 20 minutes. At the end of the 20 minutes, the reaction proceeding in the mixture was stopped by adding 3 cc of an aqueous NaOH solution to the mixture. The mixture was assayed for absorption at a wavelength of 422 mμ.
When the procedure was repeated by using a 1×10^-3 M aqueous solution of CF2 ClCFClCH(CH3)CH(NH2)CO2 H, the enzyme inhibition ratio was 37%.

Compound	mortality at 500 µg/mL [1] [%]	growth of the germs of blast [2]	growth of the germs of bacterial leaf blight [3]	destruction of pickerelweed ([4]; 250 g per 10 acres)	destruction of pickerelweed ([4]; 500 g per 10 acres)	destruction of pickerelweed ([4]; 1000 g per 10 acres)	destruction of purple loosestrife ([5]; 250 g per 10 acres)	destruction of purple loosestrife ([5]; 500 g per 10 acres)	destruction of purple loosestrife ([5]; 1000 g per 10 acres)	growth of the germs of black spot [6]	growth of the germs of melanose [7]	enzyme inhibition ratio ([8]; 1×10^-3 M, 1000 µM) [%]	enzyme inhibition ([8]; 2×10^-4 M) [%]
NC(CC(F)(F)C(F)(F)Br)C(=O)O (stereo not shown) [CF2 BrCF2 CH2 CH(NH2)CO2 H, 2-amino-4,4,5,5-tetrafluoro-5-bromopentanoic acid]	70	impeded the growth	impeded the growth	half destroyed	half destroyed	completely destroyed	half destroyed	half destroyed	completely destroyed				
NC(CC(F)(Cl)C(F)(F)Cl)C(=O)O (stereo not shown) [CF2 ClCFClCH2 CH(NH2)CO2 H]				completely destroyed	completely destroyed	completely destroyed	completely destroyed	completely destroyed	completely destroyed	impeded the growth	impeded the growth		
CC(C(N)C(=O)O)C(F)(Cl)C(F)(F)Cl (stereo not shown) [CF2 ClCFClCH(CH3)CH(NH2)CO2 H, 2-amino-3-methyl-4,5-dichloro-4,5,5-trifluoropentanoic acid]												37	
NC(CC(F)C(F)(F)Cl)C(=O)O (stereo not shown) [CF2 ClCHFCH2 CH(NH2)CO2 H, 2-amino-4,5,5-trifluoro-5-chloropentanoic acid]													58
